Laboratory results from patent US10682397B2, “Methods of treating fragile X syndrome and related disorders” (Massachusetts Institute of Technology, priority 2015, dated 2020).
“Also recorded” adds a separate entry of the source.

Columns and labels:
ribosomal protein S6 = assay: Immunoblotting of ribosomal protein S6 phosphorylation in hippocampal slices; type: cell-based, mice; conditions: 10 μM CDPPB
Description: (§1) Hippocampal slices were prepared and recovered as described in metabolic labeling experiments. Sets of slices were stimulated with CDPPB (10 μM) for 30 minutes and then flash frozen in liquid nitrogen immediately after stimulation, prior to processing. Yoked unstimulated slices were also processed to assess basal signaling levels Immunoblotting was performed according to established methods using primary antibodies to p-ERK1/2 (Thr202/Tyr204) (Cell Signaling Technology), ERK1/2 (Cell Signaling Technology), p-Akt (Ser473) (Cell Signaling Technology), Akt (Cell Signaling Technology), […] (Cell Signaling Technology) and S6 (Cell Signaling Technology). Protein levels were measured by densitometry (Quantity One), and quantified as the densitometric signal of phospho-protein divided by the total protein signal in the same lane.

ERK1/2 = assay: Immunoblotting of ERK1/2 phosphorylation in hippocampal slices; type: cell-based, mice; conditions: CDPPB 10 μM, 30 min
Description: as §1

hippocampal slices [1] = assay: Metabolic labeling of new protein synthesis (35S-Met/Cys incorporation) in hippocampal slices; type: cell-based, mice; conditions: CDPPB 10 μM, 30 min
Description: Metabolic labeling of new protein synthesis was performed as previously described (Osterweil et al., J. Neurosci. 46, 15616-27 (2010)). Male P28-P32 littermate mice were anesthetized with isoflurane and the hippocampus was rapidly dissected into ice-cold aCSF (in mM: 124 NaCl, 3 KCl, 1.25 NaH2PO4, 26 NaHCO3, 10 dextrose, 1 MgCl2, 2 CaCl2, saturated with 95% O2 and 5% CO2). Hippocampal slices (500 μm) were prepared using a Stoelting Tissue Slicer and transferred into 32.5° C. aCSF (saturated with 95% O2 and 5% CO2) within 5 mM. Slices were incubated in aCSF undisturbed for 3.5-4 h to allow for recovery of basal protein synthesis. Actinomycin D (25 μM) and vehicle or CDPPB (10 μM) was then added to the recovery chamber for 30 mM to inhibit transcription and stimulate mGlu receptors, respectively after which slices were transferred to fresh aCSF containing ˜10 mCi/ml [^35S] Met/Cys (Perkin Elmer) for an additional 30 mM Slices were then homogenized, and labeled proteins isolated by TCA precipitation. Samples were read with a scintillation counter and subjected to a protein concentration assay (Bio-Rad). Data was analyzed as counts per minute per microgram of protein, normalized to the [^35S] Met/Cys aCSF used for incubation and the average incorporation of all samples analyzed and then normalized to percent wild-type for each experiment. Statistical significance was determined using unpaired t-tests.
To determine the role of β-arrestin2 in mGlu5-mediated protein synthesis, hippocampal slices from male Arrb2^+/− and wild-type (WT) littermates were stimulated with a selective […] positive modulator of mGlu5, 3-Cyano-N-(1,3-diphenyl-1H-pyrazol-5-yl) benzamide (CDPPB, 10 μM, 30 minutes), and the incorporation of ^35S-methionine/cysteine into new protein was measured. mGlu5 activation caused a parallel increase in protein synthesis (FIG. 1A) and ERK1/2 phosphorylation (FIG. 1B) in WT slices, which were both absent in slices from Arrb2^+/− mice. […]

AKT = assay: Immunoblotting of AKT phosphorylation in hippocampal slices; type: cell-based, mice; conditions: 10 μM CDPPB
Description: as §1

hippocampal neurons = assay: Fluorescence-based calcium imaging in brain slices (Fluo-4 AM); type: cell-based, mice; conditions: DHPG 25 μM
Description: Hippocampal slices were prepared as described for electrophysiology experiments and recovered in aCSF for 2 hours at 32° C. Slices were then moved to a small recovery chamber and incubated in oxygenated aCSF containing 20 μM fluo-4-acetoxymethyl ester (fluo-4 AM; ThermoFisher) and 0.1% Pluronic F-127 (ThermoFisher) for 1 hour in the dark. After 1 hour, slices were then washed with oxygenated aCSF containing 1 μM tetrodotoxin (Abcam) and 50 μM D-AP5 (Tocris) for 20 minutes in a recording chamber. A low-powered (4×) objective was used to identify the brain region of interest. CA1 pyramidal neurons were visualized using a 40× water immersion objective and a Nikon Eclipse E600FN microscope.
Changes in Ca^2+ fluorescence were monitored in the presence of 1 μM tetrodotoxin and 50 μM D-AP5 using a Hamamatsu ORCA-100 camera, HClmage software (Hamamatsu), and a mercury arc-lamp and power supply (Nikon). After a 10 second baseline, 25 μM (S)-3,5-DHPG was bath applied. […] Data were analyzed using Image J software. Increases in Ca^2+ mobilization in hippocampal neurons were reported as changes in relative fluorescence divided by the baseline fluorescence (ΔF/F).
To assay the integrity of Gq signaling, calcium mobilization in hippocampal slices from WT and Arrb2^+/− animals was measured using the cell-permeable calcium fluorescent dye Fluo4-AM. […]

mice = assay: MK801-induced hyperlocomotion in the open field; type: in vivo; conditions: for MK801-induced hyperlocomotion: MTEP 10 mg/kg i.p. pre-treatment, MK801 0.3 mg/kg
Description: To determine the effects of genotype on MK801-induced hyperlocomotion, mice were habituated in the open field (40 cm×40 cm×40 cm box) for 60 min, followed by the administration of vehicle or MK801 and locomotor activity was recorded for another 60 mM. To determine the effects of MTEP by genotype on MK801-induced hyperlocomotion, mice were habituated in the open field for 30 min, followed by the intraperitoneal (i.p.) administration of MTEP (10 mg/kg at a dosing volume of 10 ml/kg). After an additional 30 mM, MK801 (0.3 mg/kg at a dosing volume of 10 ml/kg) was administered i.p. and locomotor activity was recorded for another 60 mM. The time course of drug-induced changes in ambulation was expressed as cm traveled/5 mM over the 120-min session. Sessions were recorded using Plexon's CINEPLEX® Studio and analyzed using Plexon's CINEPLEX® Editor and code written in MATLAB. MK801-induced locomotor activity was scored and analyzed using the average of the final 5 minutes (minute 115-120) per cohort.

hippocampal slices [2] = assay: mGlu-LTD (DHPG-induced) field recordings in hippocampal slices; type: cell-based, mice
Description: Slices were prepared as described previously (Dolen et al., Neuron 6, 955-56 (2007)). Acute hippocampal slices (350 μm) were prepared from P28-35 animals in ice-cold dissection buffer containing (in mM): NaCl 87, Sucrose 75, KCl2.5, NaH2PO4 1.25, NaHCO3 25, CaCl2 0.5, MgSO4 7, Ascorbic acid 1.3, and D-glucose 10 (saturated with 95% O2/5% CO2). Immediately following slicing the CA3 region was removed. Slices were recovered in artificial cerebrospinal fluid (aCSF) containing (in mM): NaCl 124, KCl5, NaH2PO4 1.23, NaHCO3 26, CaCl2 2, MgCl2 1, and D-glucose 10 (saturated with 95% O2/5% CO2) at 32.5° C. for ≥3 hours prior to recording.
Field recordings were performed in a submersion chamber, perfused with aCSF (2-3 ml/min) at 30° C. Field EPSPs (fEPSPs) were recorded in CA1 stratum radiatum with extracellular glass electrodes (1-2 MΩ) filled with aCSF. Baseline responses were evoked by stimulation of the Schaffer collaterals at 0.033 Hz with a 2-contact cluster electrode (FHC) using a 0.2 ms stimulus yielding 40-60% of the maximal response. fEPSP recordings were filtered at 0.1 Hz-1 kHz, digitized at 10 kHz, and analyzed using pClamp9 (Axon Instruments). […]
Paired pulse facilitation was induced by applying two pulses at different interstimulus intervals. Facilitation was measured by the ratio of the fEPSP slope of stimulus 2 to stimulus 1. […]

Compound: N#Cc1cccc(C(=O)Nc2cc(-c3ccccc3)nn2-c2ccccc2)c1 [CDPPB, 3-Cyano-N-(1,3-diphenyl-1H-pyrazol-5-yl) benzamide]
- S6 phosphorylation compared with vehicle (ribosomal protein S6; WT and Arrb1+/− slices): Neither WT nor Arrb1^+/− slices stimulated with CDPPB show elevated S6 phosphorylation
- S6 phosphorylation compared with vehicle (ribosomal protein S6; WT and Arrb2+/− slices): Neither WT nor Arrb2^+/− slices stimulated with CDPPB show elevated S6 phosphorylation
- ERK1/2 phosphorylation compared with vehicle (ERK1/2; Arrb1+/− slices): elevated
- ERK1/2 phosphorylation compared with vehicle (ERK1/2; Arrb2+/− slices): no change
- ERK1/2 phosphorylation compared with vehicle (ERK1/2; WT slices): elevated
- Protein synthesis compared with vehicle (hippocampal slices [1]; Arrb1+/− slices): similarly elevated
- Protein synthesis compared with vehicle (hippocampal slices [1]; Arrb2+/− slices): no effect
- Protein synthesis compared with vehicle (hippocampal slices [1]; WT slices): similarly elevated
- AKT phosphorylation compared with vehicle (AKT; WT and Arrb1+/− slices): Neither WT nor Arrb1^+/− slices stimulated with CDPPB show elevated AKT phosphorylation
- AKT phosphorylation compared with vehicle (AKT; WT and Arrb2+/− slices): Neither WT nor Arrb2^+/− slices stimulated with CDPPB show elevated AKT phosphorylation

Compound: N[C@H](C(=O)O)c1cc(O)cc(O)c1 [DHPG, (S)-3,5-Dihydroxyphenylglycine]
- Ca2+-mediated fluorescence (hippocampal neurons; 1 min, WT and Arrb2+/− slices (not significantly different)): rapid increase

Compound: C[C@]12N[C@H](Cc3ccccc31)c1ccccc12 [MK801]
- Locomotor activity compared to vehicle (mice; MK801 0.3 mg/kg i.p., 60 minutes post-treatment, WT and Arrb2+/− mice (comparable)): hyperlocomotion

Compound: Cc1nc(C#Cc2cccnc2)cs1 [MTEP, 3-[(2-Methyl-1,3-thiazol-4-yl)ethynyl]-pyridine]
- MK801-induced hyperlocomotion (mice; Arrb2+/− mice): continues to exacerbate; also recorded: potentiates
- MK801-induced hyperlocomotion (mice; WT mice): significantly potentiates

Compound: COc1ccc2c(c1)CC[C@@H]1[C@@H]2CC[C@]2(C)[C@@H](NCCCCCCN3C(=O)C=CC3=O)CC[C@@H]12 [U73122]
- DHPG-induced changes in calcium fluorescence (hippocampal neurons; pretreatment with 10 μM U73122, data not shown): completely blocked

Compound: C[C@@H]1C[C@@H]([C@H](O)CC2CC(=O)NC(=O)C2)C(=O)[C@@H](C)C1 [cycloheximide]
- DHPG-LTD (25 μM, 5 min) magnitude (hippocampal slices [2]; Arrb2+/− slices, cycloheximide 60 μM, listed as CHX): unaffected; also recorded: no effect
- DHPG-LTD (25 μM, 5 min) magnitude (hippocampal slices [2]; WT slices, cycloheximide 60 μM pretreatment): significantly diminished; also recorded: significantly attenuated
